Key:
lipid peroxidation = experiment: Inhibition of lipid peroxidation in vitro, thiobarbituric acid test (synaptosomal membrane fraction, Fenton's reagent); settings: read-out: Lipid peroxidation inhibition [IC50], iron(II) chloride/hydrogen peroxide, 30 min at 37° C.
LDL oxidation = experiment: Inhibition of LDL oxidation in vitro, method of Esterbauer et al (1988), CuSO4, 234 nm; type: biochemical; settings: 1 μM, LDL isolated from human whole blood, room temperature, at least 8 h
Method: The measurement of in vitro inhibition of LDL oxidation was performed in accordance with Esterbauer et al (1988): Effect of peroxidative conditions on human plasma low density lipoproteins. In: Eicosanoids, lipid peroxidation and cancer (ed. Nigam et al), pages 203-214, Springer-Verlag,Berlin, Heidelberg, New York.
The values listed in Table 2 for inhibition of LDL oxidation represent examples for cardiovascular activities.
Testing of the substances for inhibitory action with regard to LDL oxidation, by the method of Esterbauer et al (1988), was carried out as follows:
The reaction mixture is incubated at room temperature over a period of at least 8 h and followed spectral photometrically (the absorption maximum of the oxidized LDL is at 234 nm). In accordance with the extinction changes, recorded at the measurement wavelength of 234 nm, in the presence or absence of test substances or in comparison of the native and the oxidized LDL, definitive statements on the influence on the oxidized LDL by the action of the test substance.
Dosage-action analysis of the test substances.

Compound	IC50 (lipid peroxidation)	LDL oxidation inhibition (prolongation of lag phase in min) (LDL oxidation)
COc1ccc2c(c1)CC[C@@H]1[C@@H]2CC[C@@]2(C)[C@H]1CC[C@@]2(O)Cc1cc(C)c(O)c(C)c1	2.34 µM	–
Cc1cc(C2=C[C@@H]3[C@H](CC[C@]4(C)[C@@H](O)CC[C@@H]34)c3ccc(O)cc32)cc(C)c1O [6-2',6'-Dimethyl-4'-hydroxyphenylestra-1,3,5(10),6-tetraene-3,17β-diol]	0.95 µM	180 min
CN(C)c1ccc(C2=C[C@@H]3[C@H](CC[C@]4(C)[C@@H](O)CC[C@@H]34)c3ccc(O)cc32)cc1 [6-4'-N,N-Dimethylaminophenylestra-1,3,5(10),6-tetraene-3,17β-diol]	2.75 µM	–
C[C@]12CC[C@H]3[C@@H](C[C@@H](c4ccc(O)cc4)C4=CC(=O)CC[C@@]43C)[C@@H]1CC[C@@H]2O [6β-4'-Hydroxyphenyl-17β-hydroxyandrost-4-ene-3-one]	60 µM	–
CN(C)c1ccc(C2=CC[C@H]3[C@@H]4CCc5cc(O)ccc5[C@H]4CC[C@]23C)cc1 [17-4'-N,N-Dimethylaminophenylestra-1,3,5(10),16-tetraene-3-ol]	4.5 µM	–
COc1ccc2c(c1)CCC1C2CCC2(C)C1CCC2(O)C[Se]c1c(C(C)(C)C)cc(O)cc1C(C)(C)C (stereo not drawn) [17α2',6'-Di-tert.-butyl-4'-hydroxyphenylselenomethyl-3-methoxyestra-1,3,5(10)-triene-17-ol]	4.97 µM	–
COc1ccc2c(c1)CCC1C2CCC2(C)C1CCC2(O)Cc1c(C(C)(C)C)cc(O)cc1C(C)(C)C (stereo not drawn) [17α-2',6'-Di-tert.-butyl-4'-hydroxyphenylmethyl-3-methoxyestra-1,3,5(10)-triene-17-ol]	12.6 µM	–
Cc1cc(O)cc(C)c1CC1(O)CCC2C3CCC4=CC(=O)CCC4C3CCC21C (stereo not drawn) [17α-2',6'-Dimethyl-4'-hydroxyphenylmethyl-17-hydroxyestr-4-ene-3-one]	1.92 µM	–
COc1ccc2c(c1)CCC1C2CCC2(C)C1CCC2(O)C[Se]c1c(C)cc(O)cc1C (stereo not drawn) [17α-2',6'-Dimethyl-4'-hydroxyphenylselenomethyl-3-methoxyestra-1,3,5(10)-triene-17-ol]	1.97 µM	–
C[C@]12CC[C@H]3[C@@H](CCC4=CC(=O)CC[C@@H]43)[C@@H]1CC[C@@]2(O)COc1ccc(O)cc1 [17α-4'-Hydroxyphenoxymethyl-17-hydroxyestr-4-ene-3-one]	10.1 µM	–
COC1(OC)CCC2=C(CC[C@@H]3[C@@H]2CC[C@@]2(C)[C@H]3CC[C@@]2(O)CSc2ccc(O)cc2)C1 [17α-4'-Hydroxyphenylmercaptomethyl-3,3-dimethoxyestr-5(10)-ene-17-ol]	1.46 µM	–
COc1ccc2c(c1)CC[C@@H]1[C@@H]2CC[C@@]2(C)[C@H]1CC[C@@]2(O)CSc1ccc(O)cc1 [17α-4'-Hydroxyphenylmercaptomethyl-3-methoxyestra-1,3,5(10)-triene-17-ol]	4.32 µM	–
CC1CC(=O)CC2CCC3C(CCC4(C)C3CCC4(O)CSc3ccc(O)cc3)C12C (stereo not drawn) [17α-4'-Hydroxyphenylmercaptomethyl-17-hydroxy-1α-methyl-5α-androstan-3-one]	3.82 µM	–
C[C@]12CCC(=O)C[C@@H]1CC[C@@H]1[C@@H]2CC[C@@]2(C)[C@H]1CC[C@@]2(O)CSc1ccc(O)cc1 [17α-4'-Hydroxyphenylmercaptomethyl-17-hydroxy-5α-androstan-3-one]	4.75 µM	–
C[C@]12CCC(=O)C=C1CC[C@@H]1[C@@H]2CC[C@@]2(C)[C@H]1CC[C@@]2(O)CSc1ccc(O)cc1 [17α-4'-Hydroxyphenylmercaptomethyl-17-hydroxyandrost-4-ene-3-one]	10.9 µM	–
C[C@]12CC[C@H]3[C@@H](CCC4=CC(=O)CC[C@@H]43)[C@@H]1CC[C@@]2(O)CSc1ccc(O)cc1 [17α-4'-Hydroxyphenylmercaptomethyl-17-hydroxyestr-4-ene-3-one]	8.6 µM	–
C[C@]12CC=C3c4ccc(O)cc4CC[C@H]3[C@@H]1CC[C@@]2(O)CSc1ccc(O)cc1 [17α-4'-Hydroxyphenylmercaptomethylestra-1,3,5(10),9(11)-tetraene-3,17-diol]	0.44 µM	270 min

Compound	IC50 (lipid peroxidation)	LDL oxidation inhibition (prolongation of lag phase in min) (LDL oxidation)
C[C@]12CC[C@@H]3c4ccc(O)cc4CC[C@H]3[C@@H]1CC[C@@]2(O)CSc1ccc(O)cc1 [17α-4'-Hydroxyphenylmercaptomethylestra-1,3,5(10)-triene-3,17-diol]	2.2 µM	120 min
COc1ccc2c(c1)CC[C@@H]1[C@@H]2CC[C@@]2(C)[C@H]1CC[C@@]2(O)Cc1ccc(O)cc1 [17α-4'-Hydroxyphenylmethyl-3-methoxyestra-1,3,5(10)-triene-17-ol]	2.64 µM	–
C[C@]12CC[C@H]3[C@@H](CCC4=CC(=O)CC[C@@H]43)[C@@H]1CC[C@@]2(O)Cc1ccc(O)cc1 [17α-4'-Hydroxyphenylmethyl-17-hydroxyestr-4-ene-3-one]	50 µM	–
C[C@]12CC=C3c4ccc(O)cc4CC[C@H]3[C@@H]1CC[C@@]2(O)Cc1ccc(O)cc1 [17α-4'-Hydroxyphenylmethylestra-1,3,5(10),9(11)-tetraene-3,17-diol]	0.32 µM	230 min
C[C@]12CC[C@@H]3c4ccc(O)cc4CC[C@H]3[C@@H]1CC[C@@]2(O)Cc1ccc(O)cc1 [17α-4'-Hydroxyphenylmethylestra-1,3,5(10)-triene-3,17-diol]	4.03 µM	125 min
CN(C)c1ccc([C@]2(O)CC[C@H]3[C@@H]4CCc5cc(O)ccc5[C@H]4CC[C@@]32C)cc1 [17α-4'-N,N-Dimethylaminophenylestra-1,3,5(10)-triene-3,17-diol]	0.95 µM	170 min
COc1ccc2c(c1)CC[C@@H]1[C@@H]2CC[C@@]2(C)[C@H]1CC[C@@]2(O)Cc1ccc(N(C)C)cc1 [17α-4'-N,N-Dimethylaminophenylmethyl-3-methoxyestra-1,3,5(10)-triene-17-ol]	1.64 µM	195 min
CN(C)c1ccc(C[C@]2(O)CC[C@H]3[C@@H]4CCC5=CC(=O)CC[C@@H]5[C@H]4CC[C@@]32C)cc1 [17α-4'-N,N-Dimethylaminophenylmethyl-17-hydroxyestr-4-ene-3-one]	> 10 µM	–
CN(C)c1ccc(C[C@]2(O)CC[C@H]3[C@@H]4CCc5cc(O)ccc5C4=CC[C@@]32C)cc1 [17α-4'-N,N-Dimethylaminophenylmethylestra-1,3,5(10),9(11)-tetraene-3,17-diol]	2.1 µM	–
CN(C)c1ccc(C[C@]2(O)CC[C@H]3[C@@H]4CCc5cc(O)ccc5[C@H]4CC[C@@]32C)cc1 [17α-4'-N,N-Dimethylaminophenylmethylestra-1,3,5(10)-triene-3,17-diol]	3.53 µM	–
COc1ccc2c(c1)CC[C@@H]1[C@@H]2CC[C@@]2(C)[C@H]1CC[C@@]2(O)C[Se]c1ccc(N(C)C)cc1 [17α-4'-N,N-Dimethylaminophenylselenomethyl-3-methoxyestra-1,3,5(10)-triene-17-ol]	1.33 µM	–
COC1(OC)CCC2=C(CC[C@@H]3[C@@H]2CC[C@@]2(C)[C@H]3CC[C@@]2(O)Cc2ccc(N(C)C)cc2)C1 [17α-4'-N,N-Dimethylphenylmethyl-3,3-dimethoxyestr-5(10)-ene-17-ol]	5.5 µM	–
C[C@]12CC[C@@H]3c4ccc(O)cc4CC[C@H]3[C@@H]1CC[C@@H]2O [17β-Estradiol, reference compound]	12.4 µM	40 min
C[C@]12CC[C@@H]3c4ccc(O)cc4CC[C@H]3[C@@H]1C[C@@H](O)[C@@H]2O [Estriol, reference compound]	22.5 µM	20 min
Cc1c(C)c2c(c(C)c1O)CCC(C)(CN1CCN(c3cc(N4CCCC4)nc(N4CCCC4)n3)CC1)O2 (stereo not drawn) [Example U-78517F, reference compound]	–	20 min
Vitamin E [reference compound]	132 µM	–
